Experimental data: publication PMC9937993, “Structures of the NDP-pyranose mutase belonging to glycosyltransferase family 75 reveal residues important for Mn^2+ coordination and substrate binding” (The Journal of Biological Chemistry, 2023)

Experiments:
Format in all cases: binding
MtdL [1] = target: MtdL (Marinactinospora thermotolerans, UniProt G8HX37, N42D); assay: ITC
MtdL [2] = target: MtdL (Marinactinospora thermotolerans, UniProt G8HX37, T13P); assay: ITC
MtdL [3] = target: T1, MtdL (Marinactinospora thermotolerans, UniProt G8HX37); assay: ITC; crystal structure of GDP·Mn2+·MtdL at […] Å
T1 sequence (G8HX37 1-376): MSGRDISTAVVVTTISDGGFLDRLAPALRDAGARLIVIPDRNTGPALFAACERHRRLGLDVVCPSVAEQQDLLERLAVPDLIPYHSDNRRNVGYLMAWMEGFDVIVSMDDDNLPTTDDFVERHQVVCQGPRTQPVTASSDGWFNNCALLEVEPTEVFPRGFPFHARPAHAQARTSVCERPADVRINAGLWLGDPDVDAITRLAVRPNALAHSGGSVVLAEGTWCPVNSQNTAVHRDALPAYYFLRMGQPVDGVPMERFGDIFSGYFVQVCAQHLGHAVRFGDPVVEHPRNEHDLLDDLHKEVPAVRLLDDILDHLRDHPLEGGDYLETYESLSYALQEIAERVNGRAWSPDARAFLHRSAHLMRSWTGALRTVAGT

Nc1nc2c(ncn2[C@@H]2O[C@H](COP(=O)(O)OP(=O)(O)O)[C@@H](O)[C@H]2O)c(=O)[nH]1 [GDP]
Kd (MtdL [1]): ~1240 nM | Kd (MtdL [2]): ~5660 nM | Kd (MtdL [3]): ~200 nM
